Broadly, the IC50 is the concentration at which inhibition is half-maximal.

The target in test [1] is T1, human V1a receptor (Homo sapiens, UniProt P37288).
T1 construct: expressed in transfected cells; host or cells: CHO K1 (ATCC), also stably transfected with a modified aequorin
As to the kind of experiment: Cellular in vitro assay for determining vasopressin receptor activity (V1a, aequorin luminescence). Particulars: for IC50: CHO cell line transfected with the human V1a receptor, [Arg8]-vasopressin at EC50 concentration, read-out: IC50 hV1a; for ratio IC50 hV2/hV1a: selectivity ratio of IC50 hV2 to IC50 hV1a. Type of test: cell-based.

The target in test [2] is T2, human V2 receptor (Homo sapiens, UniProt P30518).
T2 construct: expressed in transfected cells; host or cells: CHO K1 (ATCC) expressing firefly luciferase under a CRE-responsive promoter
The test is described as follows: Cellular in vitro assay for determining vasopressin receptor activity (V2, CRE-luciferase). Type of test: cell-based. To be noted: CHO cell line transfected with the human V2 receptor; [Arg8]-vasopressin at EC50 concentration; read-out: IC50 hV2. The essentials:
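Antagonism was measured as inhibition of a 3-h, EC50-level [Arg8]-vasopressin stimulation, with compounds tested at several concentrations, yielding IC50 values. The read-out was cAMP-driven CRE-luciferase luminescence after lysis, in recombinant CHO K1 cells carrying human V2 receptor. Cells were seeded in 2% FCS DMEM/F12 one day earlier.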

Counter-ions that a name gives are not always drawn.

T2 sequence (P30518 whole entry): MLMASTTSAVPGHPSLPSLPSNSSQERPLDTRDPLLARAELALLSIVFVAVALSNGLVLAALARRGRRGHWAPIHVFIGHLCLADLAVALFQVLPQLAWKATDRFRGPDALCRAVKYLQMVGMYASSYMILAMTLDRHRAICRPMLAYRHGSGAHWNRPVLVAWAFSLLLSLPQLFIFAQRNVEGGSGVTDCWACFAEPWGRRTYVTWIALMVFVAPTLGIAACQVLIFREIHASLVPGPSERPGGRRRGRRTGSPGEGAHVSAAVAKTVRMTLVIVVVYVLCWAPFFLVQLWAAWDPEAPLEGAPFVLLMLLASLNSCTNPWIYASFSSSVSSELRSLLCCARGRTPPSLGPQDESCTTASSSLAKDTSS
T1 sequence (P37288 whole entry): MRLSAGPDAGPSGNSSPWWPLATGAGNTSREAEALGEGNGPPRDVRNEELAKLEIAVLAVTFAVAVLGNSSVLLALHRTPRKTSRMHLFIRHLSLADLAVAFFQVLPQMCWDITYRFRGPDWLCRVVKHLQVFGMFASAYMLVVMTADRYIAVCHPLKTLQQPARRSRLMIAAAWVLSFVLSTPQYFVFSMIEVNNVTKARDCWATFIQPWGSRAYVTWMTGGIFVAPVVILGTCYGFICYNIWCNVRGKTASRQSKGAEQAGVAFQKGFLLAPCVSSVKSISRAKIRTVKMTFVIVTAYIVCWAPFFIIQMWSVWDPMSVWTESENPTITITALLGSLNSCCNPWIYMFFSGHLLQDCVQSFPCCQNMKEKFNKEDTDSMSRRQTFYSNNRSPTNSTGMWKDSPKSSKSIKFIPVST

For the compound `COCCNC(=O)OCc1nc(Cn2nc(-c3ccc(Cl)cc3)n(C[C@H](O)C(F)(F)F)c2=O)nn1-c1ccccc1Cl` [Example 48, [1-(2-Chlorophenyl)-3-({3-(4-chlorophenyl)-5-oxo-4-[(2S)-3,3,3-trifluoro-2-hydroxypropyl]-4,5-dihydro-1H-1,2,4-triazol-1-yl}methyl)-1H-1,2,4-triazol-5-yl]methyl (2-methoxyethyl)carbamate], in test [1], the IC50 turned out to be 1.12 nM and the “ratio IC50 hV2/hV1a” value came to 5.3. In addition, the IC50 in test [2] was 5.91 nM.

Regarding `CC(=O)NC1(c2nc(Cn3nc(-c4ccc(Cl)cc4)n(C[C@H](O)C(F)(F)F)c3=O)nn2-c2ccccc2Cl)CC1` [Example 77, N-{1-[1-(2-Chlorophenyl)-3-({3-(4-chlorophenyl)-5-oxo-4-[(2S)-3,3,3-trifluoro-2-hydroxypropyl]-4,5-dihydro-1H-1,2,4-triazol-1-yl}methyl)-1H-1,2,4-triazol-5-yl]cyclopropyl}acetamide], the IC50 in test [1] came to 6.5 nM; in test [2], 340 nM. The “ratio IC50 hV2/hV1a” value in test [1] was 52.3.

For the compound `C[C@H](OC(N)=O)c1nc(Cn2nc(-c3ccc(Cl)cc3)n(C[C@H](O)C(F)(F)F)c2=O)nn1-c1ncccc1Cl` [Example 14, (1S)-1-[3-({3-(4-Chlorophenyl)-5-oxo-4-[(2S)-3,3,3-trifluoro-2-hydroxypropyl]-4,5-dihydro-1H-1,2,4-triazol-1-yl}methyl)-1-(3-chloropyridin-2-yl)-1H-1,2,4-triazol-5-yl]ethyl Carbamate], the IC50 was 1.75 nM in test [1] and 52 nM in test [2]. Moreover, the “ratio IC50 hV2/hV1a” value in test [1] came to 29.7.

With `NC1(c2nc(Cn3nc(-c4ccc(Cl)cc4)n(C[C@H](O)C(F)(F)F)c3=O)nn2-c2ccccc2Cl)CC1` [Example 76, 2-{[5-(1-Aminocyclopropyl)-1-(2-chlorophenyl)-1H-1,2,4-triazol-3-yl]methyl}-5-(4-chlorophenyl)-4-[(2S)-3,3,3-trifluoro-2-hydroxypropyl]-2,4-dihydro-3H-1,2,4-triazol-3-one hydrochloride], the IC50 in test [1] was 0.48 nM; in test [2], 3.95 nM. For the same compound, the “ratio IC50 hV2/hV1a” value in test [1] amounted to 8.3.

Consider `C[C@@H](OC(N)=O)c1nc(Cn2nc(-c3ccc(Cl)cc3)n(C[C@H](O)C(F)(F)F)c2=O)nn1-c1ccc(F)cc1Cl` [Example 4, (1R)-1-[1-(2-Chloro-4-fluorophenyl)-3-({3-(4-chlorophenyl)-5-oxo-4-[(2S)-3,3,3-trifluoro-2-hydroxypropyl]-4,5-dihydro-1H-1,2,4-triazol-1-yl}methyl)-1H-1,2,4-triazol-5-yl]ethyl Carbamate], for which, in test [1], the half-maximal inhibitory concentration (IC50) turned out to be 1.46 nM and the “ratio IC50 hV2/hV1a” value stood at 9.2. Further, in test [2], the half-maximal inhibitory concentration (IC50) amounted to 13.4 nM.

For `C[C@H](OC(N)=O)c1nc(Cn2nc(-c3ccc(Cl)cc3)n(C[C@H](OC(N)=O)C(F)(F)F)c2=O)nn1-c1ccccc1Cl` [Example 34, (2S)-3-[1-({5-[(1S)-1-(Carbamoyloxy)ethyl]-1-(2-chlorophenyl)-1H-1,2,4-triazol-3-yl}methyl)-3-(4-chlorophenyl)-5-oxo-1,5-dihydro-4H-1,2,4-triazol-4-yl]-1,1,1-trifluoropropan-2-yl Carbamate], in test [1], the half-inhibitory concentration (IC50) was found to be 0.64 nM and the “ratio IC50 hV2/hV1a” value came to 4.3. The IC50 in test [2] is 2.75 nM.

Regarding `CC(C)(C)OCC(NS(C)(=O)=O)c1nc(Cn2nc(-c3ccc(Cl)cc3)n(C[C@H](O)C(F)(F)F)c2=O)nn1-c1ccccc1Cl` (single isomer, unassigned) [Example 83], in test [1], the IC50 amounted to 1.95 nM and the “ratio IC50 hV2/hV1a” value is 41.3. The IC50 in test [2] was 80.5 nM.

In the case of `C[C@H](OC(N)=O)c1nc(Cn2nc(-c3ccc(Cl)cc3)n(C[C@H](O)C(F)(F)F)c2=O)nn1-c1ccc(Cl)cn1` [Example 16, (1S)-1-[3-({3-(4-Chlorophenyl)-5-oxo-4-[(2S)-3,3,3-trifluoro-2-hydroxypropyl]-4,5-dihydro-1H-1,2,4-triazol-1-yl}methyl)-1-(5-chloropyridin-2-yl)-1H-1,2,4-triazol-5-yl]ethyl Carbamate], the IC50 in test [1] is 160 nM; in test [2], 52.5 nM. Further, in test [1], the “ratio IC50 hV2/hV1a” value is on record as 0.3.

Take `CC(=O)NC(CO)c1nc(Cn2nc(-c3ccc(Cl)cc3)n(C[C@H](O)C(F)(F)F)c2=O)nn1-c1ccccc1Cl` (single isomer, unassigned) [Example 93]: the concentration for half-maximal inhibition (IC50) in test [1] stood at 0.78 nM; in test [2], 15.5 nM. In test [1], the “ratio IC50 hV2/hV1a” value stood at 20.0.

On to `C[C@@H](OC(N)=O)c1nc(Cn2nc(-c3ccc(Cl)cc3)n(C[C@H](OC(N)=O)C(F)(F)F)c2=O)nn1-c1ccccc1Cl` [Example 32, (2S)-3-[1-({5-[(1R)-1-(Carbamoyloxy)ethyl]-1-(2-chlorophenyl)-1H-1,2,4-triazol-3-yl}methyl)-3-(4-chlorophenyl)-5-oxo-1,5-dihydro-4H-1,2,4-triazol-4-yl]-1,1,1-trifluoropropan-2-yl Carbamate], for which, in test [1], the half-maximal inhibitory concentration (IC50) worked out at 0.51 nM and the “ratio IC50 hV2/hV1a” value was 20.3. For the same compound, the concentration for half-maximal inhibition (IC50) in test [2] was determined as 10.3 nM.

With `CC(=O)NC(C)c1nc(Cn2nc(-c3ccc(Cl)cc3)n(C[C@H](O)C(F)(F)F)c2=O)nn1-c1ncccc1Cl` (single isomer, unassigned) [Example 109], in test [1], the half-maximal inhibitory concentration (IC50) was 39 nM and the “ratio IC50 hV2/hV1a” value is recorded as 10.5. Also, the IC50 in test [2] is 408 nM.

`CC(NC(=O)C(F)(F)F)c1nc(Cn2nc(-c3ccc(Cl)cc3)n(C[C@H](O)C(F)(F)F)c2=O)nn1-c1ccccc1Cl` (mixture of isomers) [Example 73, N-{1-[1-(2-Chlorophenyl)-3-({3-(4-chlorophenyl)-5-oxo-4-[(2S)-3,3,3-trifluoro-2-hydroxypropyl]-4,5-dihydro-1H-1,2,4-triazol-1-yl}methyl)-1H-1,2,4-triazol-5-yl]ethyl}-2,2,2-trifluoroacetamide]: in test [1], the IC50 stood at 1.56 nM and the “ratio IC50 hV2/hV1a” value amounted to 5.5. Besides, the half-maximal inhibitory concentration (IC50) in test [2] was 8.6 nM.

`NC(=O)OCc1nc(Cn2nc(-c3ccc(Cl)cc3)n(C[C@H](O)C(F)(F)F)c2=O)nn1-c1cccc(F)c1` [Example 26, [3-({3-(4-Chlorophenyl)-5-oxo-4-[(2S)-3,3,3-trifluoro-2-hydroxypropyl]-4,5-dihydro-1H-1,2,4-triazol-1-yl}methyl)-1-(3-fluorophenyl)-1H-1,2,4-triazol-5-yl]methyl Carbamate]: the IC50 in test [1] came out at 5.29 nM; in test [2], 4.82 nM. Moreover, the “ratio IC50 hV2/hV1a” value in test [1] came to 0.9.

`C[C@@H](OC(N)=O)c1nc(Cn2nc(-c3ccc(Cl)cc3)n(C[C@H](O)C(F)(F)F)c2=O)nn1-c1ccccc1Cl` [Example 31, (1R)-1-[1-(2-Chlorophenyl)-3-({3-(4-chlorophenyl)-5-oxo-4-[(2S)-3,3,3-trifluoro-2-hydroxypropyl]-4,5-dihydro-1H-1,2,4-triazol-1-yl}methyl)-1H-1,2,4-triazol-5-yl]ethyl Carbamate]: in test [1], the IC50 stood at 0.94 nM and the “ratio IC50 hV2/hV1a” value is listed as 7.9. In addition, the concentration for half-maximal inhibition (IC50) in test [2] is 7.42 nM.

On to `C[C@@H](OC(N)=O)c1nc(Cn2nc(-c3ccc(Cl)cc3)n(C[C@H](O)C(F)(F)F)c2=O)nn1-c1ccccc1OC(F)(F)F` [Example 8, (1R)-1-{3-({3-(4-Chlorophenyl)-5-oxo-4-[(2S)-3,3,3-trifluoro-2-hydroxypropyl]-4,5-dihydro-1H-1,2,4-triazol-1-yl}methyl)-1-[2-(trifluoromethoxy)phenyl]-1H-1,2,4-triazol-5-yl}ethyl Carbamate], for which, in test [1], the 50% inhibitory concentration (IC50) was 0.85 nM and the “ratio IC50 hV2/hV1a” value stood at 190.5. Moreover, the IC50 in test [2] amounted to 161 nM.

Consider `CC(NS(C)(=O)=O)c1nc(Cn2nc(-c3ccc(Cl)cc3)n(C[C@H](O)C(F)(F)F)c2=O)nn1-c1ccccc1Cl` (single isomer, unassigned) [Example 68], for which, in test [1], the IC50 was 0.97 nM and the “ratio IC50 hV2/hV1a” value is 4.6. For the same compound, the IC50 in test [2] was 4.5 nM.

Regarding `C[C@@H](OC(N)=O)c1nc(Cn2nc(-c3ccc(Cl)cc3)n(C[C@H](O)C(F)(F)F)c2=O)nn1-c1c(Cl)cncc1Cl` [Example 20, (1R)-1-[3-({3-(4-Chlorophenyl)-5-oxo-4-[(2S)-3,3,3-trifluoro-2-hydroxypropyl]-4,5-dihydro-1H-1,2,4-triazol-1-yl}methyl)-1-(3,5-dichloropyridin-4-yl)-1H-1,2,4-triazol-5-yl]ethyl Carbamate], the half-inhibitory concentration (IC50) was found to be 3.3 nM in test [1] and 52 nM in test [2]. Moreover, the “ratio IC50 hV2/hV1a” value in test [1] is reported as 15.8.

With `NC(=O)OCc1nc(Cn2nc(-c3ccc(Cl)cc3)n(C[C@H](OC(N)=O)C(F)(F)F)c2=O)nn1-c1ccccc1Cl` [Example 29, (2S)-3-[1-({5-[(Carbamoyloxy)methyl]-1-(2-chlorophenyl)-1H-1,2,4-triazol-3-yl}methyl)-3-(4-chlorophenyl)-5-oxo-1,5-dihydro-4H-1,2,4-triazol-4-yl]-1,1,1-trifluoropropan-2-yl Carbamate], in test [1], the IC50 was found to be 1.29 nM and the “ratio IC50 hV2/hV1a” value worked out at 2.3. In test [2], the 50% inhibitory concentration (IC50) turned out to be 2.93 nM.

Turning to `CC(N)c1nc(Cn2nc(-c3ccc(Cl)cc3)n(C[C@H](O)C(F)(F)F)c2=O)nn1-c1ncccc1Cl` (mixture of isomers) [Example 106, 2-({5-[1-Aminoethyl]-1-(3-chloropyridin-2-yl)-1H-1,2,4-triazol-3-yl}methyl)-5-(4-chlorophenyl)-4-[(2S)-3,3,3-trifluoro-2-hydroxypropyl]-2,4-dihydro-3H-1,2,4-triazol-3-one], in test [1], the IC50 stood at 1.65 nM and the “ratio IC50 hV2/hV1a” value is recorded as 11.2. Moreover, in test [2], the 50% inhibitory concentration (IC50) amounted to 18.5 nM.
